Source: the supplement of paper PMC5908809

Experiments:
KHYG-1 (IL-2 2.5 ng/mL) [1] = assay: drug sensitivity score (DSS) (DSS units); higher = more sensitive; extreme values may be limits of the assay; details: 72 h
KAI3 (IL-2 2.5 ng/mL) [2] = assay: as above; details: 72 h
[3] = system: normal primary NK cells, pool 1 (3 donors) (IL-2 2.5 ng/mL); assay: as above; details: 72 h
NK-YS (IL-2 2.5 ng/mL) [4] = assay: as above; details: 72 h
NK-92 (IL-2 2.5 ng/mL) [5] = assay: as above; details: 72 h
DERL-7 (IL-2 2.5 ng/mL) [6] = assay: as above; details: 72 h
IMC-1 (IL-2 20 ng/mL) [7] = assay: as above; details: 72 h
YT (IL-2 2.5 ng/mL) [8] = assay: as above; details: 72 h
[9] = system: normal primary NK cells, pool 2 (3 donors) (IL-2 2.5 ng/mL); assay: as above; details: 72 h
[10] = system: normal primary NK cells, pool 3 (3 donors) (IL-2 2.5 ng/mL); assay: as above; details: 72 h
SNK-6 (IL-2 2.5 ng/mL) [11] = assay: as above; details: 72 h
[12] = system: normal primary NK cells, pool 1 (3 donors), resting (IL-2 0 ng/mL); assay: as above; details: 72 h
NKL (IL-2 2.5 ng/mL) [13] = assay: as above; details: 72 h
[14] = system: normal NK cells expanded with K562-aAPC; assay: as above; details: 72 h; IL-2 2.5 ng/mL
Procedure: (§1)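 Drug sensitivity and resistance testing on K562-aAPC-expanded normal NK cells: 5 concentrations (10-fold steps over a 10,000-fold range), 72 h at 37 °C, viability by CellTiter-Glo normalised to DMSO and benzethonium chloride controls; DSS from the fitted curve.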

[15] = system: normal NK cells expanded with K562-aAPC; assay: percent inhibition of viability; higher = more inhibition; details: 72 h, IL-2 2.5 ng/mL
Procedure: as §1

KHYG-1 (IL-2 2.5 ng/mL) [16] = assay: as above; details: 72 h
KAI3 (IL-2 2.5 ng/mL) [17] = assay: as above; details: 72 h
[18] = system: normal primary NK cells, pool 1 (3 donors) (IL-2 2.5 ng/mL); assay: as above; details: 72 h
NK-YS (IL-2 2.5 ng/mL) [19] = assay: as above; details: 72 h
NK-92 (IL-2 2.5 ng/mL) [20] = assay: as above; details: 72 h
DERL-7 (IL-2 2.5 ng/mL) [21] = assay: as above; details: 72 h
IMC-1 (IL-2 20 ng/mL) [22] = assay: as above; details: 72 h
YT (IL-2 2.5 ng/mL) [23] = assay: as above; details: 72 h
[24] = system: normal primary NK cells, pool 2 (3 donors) (IL-2 2.5 ng/mL); assay: as above; details: 72 h
[25] = system: normal primary NK cells, pool 3 (3 donors) (IL-2 2.5 ng/mL); assay: as above; details: 72 h
SNK-6 (IL-2 2.5 ng/mL) [26] = assay: as above; details: 72 h
[27] = system: normal primary NK cells, pool 1 (3 donors), resting (IL-2 0 ng/mL); assay: as above; details: 72 h
NKL (IL-2 2.5 ng/mL) [28] = assay: as above; details: 72 h

CCC(C)(C)C(=O)O[C@H]1C[C@@H](C)C=C2C=C[C@H](C)[C@H](CC[C@@H]3C[C@@H](O)CC(=O)O3)[C@H]21 [Simvastatin] (max concentration tested 10000 nM)
Details | drug sensitivity score
DERL-7 (IL-2 2.5 ng/mL) [6] | 0
IMC-1 (IL-2 20 ng/mL) [7] | 2.48
KAI3 (IL-2 2.5 ng/mL) [2] | 0.61
KHYG-1 (IL-2 2.5 ng/mL) [1] | 0
NK-92 (IL-2 2.5 ng/mL) [5] | 0
NK-YS (IL-2 2.5 ng/mL) [4] | 4.82
NKL (IL-2 2.5 ng/mL) [13] | 4.74
SNK-6 (IL-2 2.5 ng/mL) [11] | 0
YT (IL-2 2.5 ng/mL) [8] | 1.26
[3] | 0
[9] | 1.89
[10] | 0
[12] | 0.04
[14] | 0

percent inhibition of viability [%]
Details | 1 nM | 10 nM | 100 nM | 1000 nM | 10000 nM
DERL-7 (IL-2 2.5 ng/mL) [21] | -1.97 | -3.51 | 4.88 | 4.07 | 10.3
IMC-1 (IL-2 20 ng/mL) [22] | -0.2 | -3.36 | 3.54 | 3.84 | 38.1
KAI3 (IL-2 2.5 ng/mL) [17] | 3.02 | -8.09 | -7.7 | -3.05 | 22.5
KHYG-1 (IL-2 2.5 ng/mL) [16] | 2.27 | -0.82 | 3.03 | 5.63 | 11.2
NK-92 (IL-2 2.5 ng/mL) [20] | -8.62 | -9.55 | 2.91 | -5.14 | -1.54
NK-YS (IL-2 2.5 ng/mL) [19] | -1.72 | 2.03 | 2 | 6.51 | 68.6
NKL (IL-2 2.5 ng/mL) [28] | -16.6 | -8.92 | 0.63 | 6 | 68.9
SNK-6 (IL-2 2.5 ng/mL) [26] | 4.57 | -0.33 | 6.13 | -5.3 | 1.07
YT (IL-2 2.5 ng/mL) [23] | 0.42 | -0.1 | 0.72 | 2.62 | 23.9
[15] | 0.17 | -4.47 | -1.19 | -2.06 | 6.89
[18] | -7.84 | 9.33 | -16.5 | -3.95 | 8.72
[24] | -9.03 | -7.28 | -6.35 | 14.3 | 19.6
[25] | -9.67 | -10.8 | -5.99 | 4.87 | 2.32
[27] | -0.52 | -1.88 | -12.8 | -6.51 | 13.3

C=CCN(/C=C1/C(=O)O[C@H](COC)[C@@]2(C)C1=C(O)C(=O)C1=C2[C@H](OC(C)=O)C[C@]2(C)C(=O)CC[C@@H]12)CC=C [Sonolisib] (max concentration tested 10000 nM)
Details | drug sensitivity score
DERL-7 (IL-2 2.5 ng/mL) [6] | 1.49
IMC-1 (IL-2 20 ng/mL) [7] | 0
KAI3 (IL-2 2.5 ng/mL) [2] | 2.98
KHYG-1 (IL-2 2.5 ng/mL) [1] | 0.5
NK-92 (IL-2 2.5 ng/mL) [5] | 4.58
NK-YS (IL-2 2.5 ng/mL) [4] | 2.85
NKL (IL-2 2.5 ng/mL) [13] | 3.66
SNK-6 (IL-2 2.5 ng/mL) [11] | 0.79
YT (IL-2 2.5 ng/mL) [8] | 1.45
[3] | 5.59
[9] | 3.83
[10] | 2.06
[12] | 5.24
[14] | 1.91

percent inhibition of viability [%]
Details | 1 nM | 10 nM | 100 nM | 1000 nM | 10000 nM
DERL-7 (IL-2 2.5 ng/mL) [21] | 4.44 | 0.05 | 7.66 | 7.97 | 25.7
IMC-1 (IL-2 20 ng/mL) [22] | -9.13 | -2.03 | -1.28 | -0.72 | 6.3
KAI3 (IL-2 2.5 ng/mL) [17] | -2.28 | -8.79 | -2.59 | 6.95 | 37.8
KHYG-1 (IL-2 2.5 ng/mL) [16] | -3.26 | -9.75 | -5.87 | -0.67 | 19.3
NK-92 (IL-2 2.5 ng/mL) [20] | -0.51 | -6.14 | 4.9 | 21.8 | 43.3
NK-YS (IL-2 2.5 ng/mL) [19] | -0.83 | -2.4 | -0.43 | 13.8 | 28.2
NKL (IL-2 2.5 ng/mL) [28] | -7.87 | -4.63 | -1.36 | 21.9 | 28.6
SNK-6 (IL-2 2.5 ng/mL) [26] | -13.7 | -20.8 | -21.5 | -12.3 | 28.8
YT (IL-2 2.5 ng/mL) [23] | -3.75 | -4.21 | -0.91 | 9.17 | 19.1
[15] | -4.81 | -6.86 | -3.23 | 3.22 | 31.4
[18] | -5.92 | 11.5 | 7.17 | 23.3 | 57
[24] | -5.83 | 0.64 | 8.59 | 17.3 | 40.2
[25] | -11.6 | 9.95 | 14.7 | 4.05 | 31.2
[27] | -7.82 | 8.6 | 11.1 | 16.4 | 59.7

CN1CCN(c2nc(C3=C(c4c[nH]c5ccccc45)C(=O)NC3=O)c3ccccc3n2)CC1 [Sotrastaurin] (max concentration tested 10000 nM)
Details | drug sensitivity score
DERL-7 (IL-2 2.5 ng/mL) [6] | 9.93
IMC-1 (IL-2 20 ng/mL) [7] | 0.22
KAI3 (IL-2 2.5 ng/mL) [2] | 6.26
KHYG-1 (IL-2 2.5 ng/mL) [1] | 7.45
NK-92 (IL-2 2.5 ng/mL) [5] | 6.04
NK-YS (IL-2 2.5 ng/mL) [4] | 4.32
NKL (IL-2 2.5 ng/mL) [13] | 11.4
SNK-6 (IL-2 2.5 ng/mL) [11] | 2.08
YT (IL-2 2.5 ng/mL) [8] | 3.65
[3] | 7.19
[9] | 3.66
[10] | 2.75
[12] | 0
[14] | 5.13

percent inhibition of viability [%]
Details | 1 nM | 10 nM | 100 nM | 1000 nM | 10000 nM
DERL-7 (IL-2 2.5 ng/mL) [21] | -4.78 | -0.35 | 2.08 | 40.8 | 89
IMC-1 (IL-2 20 ng/mL) [22] | -5.62 | -0.79 | -3.9 | 0.37 | 14.4
KAI3 (IL-2 2.5 ng/mL) [17] | 1.68 | 5.93 | 0.83 | 15.7 | 68.5
KHYG-1 (IL-2 2.5 ng/mL) [16] | -1.7 | 2.28 | 1.66 | 16.2 | 86.7
NK-92 (IL-2 2.5 ng/mL) [20] | -7.26 | -8.85 | -22.3 | 14.4 | 67.9
NK-YS (IL-2 2.5 ng/mL) [19] | -6.15 | -1.7 | 5.97 | 11.9 | 48.6
NKL (IL-2 2.5 ng/mL) [28] | -0.06 | 2.68 | 21.7 | 45.5 | 80
SNK-6 (IL-2 2.5 ng/mL) [26] | -17.8 | -16.5 | -5.18 | -2.38 | 44.5
YT (IL-2 2.5 ng/mL) [23] | -2.44 | 0.13 | 0.38 | 16.3 | 34.6
[15] | -1.03 | -1.43 | 5.74 | 19.1 | 54.6
[18] | -5.39 | 7.06 | 18.6 | 27.9 | 44.3
[24] | -13.5 | -3.77 | 5.41 | 15.2 | 41.4
[25] | -3.26 | -0.15 | 8.22 | 5.07 | 38.6
[27] | -32.7 | 2.96 | -3.23 | 9.18 | -53.6
